Reference: BigSolDB 2.1

Work on COc1c(NS(=O)(=O)c2ccc(F)cc2)cc(-c2ccc3ncnc(N4CCOCC4)c3c2)cc1C(N)=O yielded a solubility (mole fraction) (in acetone, 288.15 K) of 0.000317, a solubility (mole fraction) (in acetone, 293.15 K) of 0.000317 and a solubility (mole fraction) (in acetone, 298.15 K) of 0.000352. It also gave a solubility (mole fraction) (in acetone, 303.15 K) of 0.000419, a solubility (mole fraction) (in acetone, 308.15 K) of 0.000459 and a solubility (mole fraction) (in acetone, 313.15 K) of 0.000526. For the same molecule, the solubility (mole fraction) (in acetone, 318.15 K) was 0.000592, the solubility (mole fraction) (in chloroform, 288.15 K) was 0.000145 and the solubility (mole fraction) (in chloroform, 293.15 K) was 0.000158. For the same molecule, the solubility (mole fraction) (in chloroform, 298.15 K) was 0.000165, the solubility (mole fraction) (in chloroform, 303.15 K) was 0.000188 and the solubility (mole fraction) (in chloroform, 308.15 K) was 0.000223. It also gave a solubility (mole fraction) (in chloroform, 313.15 K) of 0.000258, a solubility (mole fraction) (in chloroform, 318.15 K) of 0.000303 and a solubility (mole fraction) (in chloroform, 323.15 K) of 0.00039. For the same molecule, the solubility (mole fraction) (in chloroform, 328.15 K) was 0.000495, the solubility (mole fraction) (in ethyl acetate, 288.15 K) was 9.51e-05 and the solubility (mole fraction) (in ethyl acetate, 293.15 K) was 0.000101. It also gave a solubility (mole fraction) (in ethyl acetate, 298.15 K) of 0.000114, a solubility (mole fraction) (in ethyl acetate, 303.15 K) of 0.000128 and a solubility (mole fraction) (in ethyl acetate, 308.15 K) of 0.00015. The solubility (mole fraction) (in ethyl acetate, 313.15 K) was 0.000171, the solubility (mole fraction) (in ethyl acetate, 318.15 K) was 0.000196 and the solubility (mole fraction) (in ethyl acetate, 323.15 K) was 0.00022. The solubility (mole fraction) (in ethyl acetate, 328.15 K) was 0.000239, the solubility (mole fraction) (in methanol, 288.15 K) was 0.000238 and the solubility (mole fraction) (in methanol, 293.15 K) was 0.000301. The solubility (mole fraction) (in methanol, 298.15 K) was 0.00043, the solubility (mole fraction) (in methanol, 303.15 K) was 0.000428 and the solubility (mole fraction) (in methanol, 308.15 K) was 0.000613. For the same molecule, the solubility (mole fraction) (in methanol, 313.15 K) was 0.00078, the solubility (mole fraction) (in methanol, 318.15 K) was 0.00102 and the solubility (mole fraction) (in methanol, 323.15 K) was 0.00105. For the same molecule, the solubility (mole fraction) (in methanol, 328.15 K) was 0.00125, the solubility (mole fraction) (in toluene, 288.15 K) was 1.05e-05 and the solubility (mole fraction) (in toluene, 293.15 K) was 1.05e-05. The solubility (mole fraction) (in toluene, 298.15 K) was 1.05e-05, the solubility (mole fraction) (in toluene, 303.15 K) was 1.13e-05 and the solubility (mole fraction) (in toluene, 308.15 K) was 1.31e-05. For the same molecule, the solubility (mole fraction) (in toluene, 313.15 K) was 1.53e-05, the solubility (mole fraction) (in toluene, 318.15 K) was 1.67e-05 and the solubility (mole fraction) (in toluene, 323.15 K) was 1.83e-05. It also gave a solubility (mole fraction) (in toluene, 328.15 K) of 2.14e-05, a solubility (mole fraction) (in water, 288.15 K) of 5.21e-07 and a solubility (mole fraction) (in water, 293.15 K) of 8.05e-07. For the same molecule, the solubility (mole fraction) (in water, 298.15 K) was 9.14e-07, the solubility (mole fraction) (in water, 303.15 K) was 1.05e-06 and the solubility (mole fraction) (in water, 308.15 K) was 1.16e-06. For the same molecule, the solubility (mole fraction) (in water, 313.15 K) was 1.37e-06, the solubility (mole fraction) (in water, 318.15 K) was 1.5e-06 and the solubility (mole fraction) (in water, 323.15 K) was 1.98e-06. It also gave a solubility (mole fraction) (in water, 328.15 K) of 2.44e-06.
COc1c(NS(=O)(=O)c2ccc(C)cc2)cc(-c2ccc3ncnc(N4CCOCC4)c3c2)cc1C(N)=O gave a solubility (mole fraction) (in acetone, 288.15 K) of 0.000635, a solubility (mole fraction) (in acetone, 293.15 K) of 0.000707 and a solubility (mole fraction) (in acetone, 298.15 K) of 0.000798. It also gave a solubility (mole fraction) (in acetone, 303.15 K) of 0.001, a solubility (mole fraction) (in acetone, 308.15 K) of 0.00115 and a solubility (mole fraction) (in acetone, 313.15 K) of 0.00141. It also gave a solubility (mole fraction) (in acetone, 318.15 K) of 0.00185, a solubility (mole fraction) (in chloroform, 288.15 K) of 0.0027 and a solubility (mole fraction) (in chloroform, 293.15 K) of 0.00314. The solubility (mole fraction) (in chloroform, 298.15 K) was 0.00346, the solubility (mole fraction) (in chloroform, 303.15 K) was 0.00398 and the solubility (mole fraction) (in chloroform, 308.15 K) was 0.00466. It also gave a solubility (mole fraction) (in chloroform, 313.15 K) of 0.00547, a solubility (mole fraction) (in chloroform, 318.15 K) of 0.00637 and a solubility (mole fraction) (in chloroform, 323.15 K) of 0.00717. The solubility (mole fraction) (in chloroform, 328.15 K) was 0.00767, the solubility (mole fraction) (in ethyl acetate, 288.15 K) was 0.000286 and the solubility (mole fraction) (in ethyl acetate, 293.15 K) was 0.000294. The solubility (mole fraction) (in ethyl acetate, 298.15 K) was 0.000302, the solubility (mole fraction) (in ethyl acetate, 303.15 K) was 0.000329 and the solubility (mole fraction) (in ethyl acetate, 308.15 K) was 0.000357. It also gave a solubility (mole fraction) (in ethyl acetate, 313.15 K) of 0.000412, a solubility (mole fraction) (in ethyl acetate, 318.15 K) of 0.00045 and a solubility (mole fraction) (in ethyl acetate, 323.15 K) of 0.000535. For the same molecule, the solubility (mole fraction) (in ethyl acetate, 328.15 K) was 0.000656, the solubility (mole fraction) (in methanol, 288.15 K) was 0.000832 and the solubility (mole fraction) (in methanol, 293.15 K) was 0.000873. It also gave a solubility (mole fraction) (in methanol, 298.15 K) of 0.000919, a solubility (mole fraction) (in methanol, 303.15 K) of 0.00105 and a solubility (mole fraction) (in methanol, 308.15 K) of 0.00123. It also gave a solubility (mole fraction) (in methanol, 313.15 K) of 0.00151, a solubility (mole fraction) (in methanol, 318.15 K) of 0.00183 and a solubility (mole fraction) (in methanol, 323.15 K) of 0.00217. The solubility (mole fraction) (in methanol, 328.15 K) was 0.00267, the solubility (mole fraction) (in toluene, 288.15 K) was 2.41e-05 and the solubility (mole fraction) (in toluene, 293.15 K) was 2.9e-05. It also gave a solubility (mole fraction) (in toluene, 298.15 K) of 3.32e-05, a solubility (mole fraction) (in toluene, 303.15 K) of 3.98e-05 and a solubility (mole fraction) (in toluene, 308.15 K) of 4.9e-05. It also gave a solubility (mole fraction) (in toluene, 313.15 K) of 5.89e-05, a solubility (mole fraction) (in toluene, 318.15 K) of 7.91e-05 and a solubility (mole fraction) (in toluene, 323.15 K) of 0.000104. It also gave a solubility (mole fraction) (in toluene, 328.15 K) of 0.00013, a solubility (mole fraction) (in water, 288.15 K) of 8.31e-07 and a solubility (mole fraction) (in water, 293.15 K) of 1.19e-06. For the same molecule, the solubility (mole fraction) (in water, 298.15 K) was 1.62e-06, the solubility (mole fraction) (in water, 303.15 K) was 2.07e-06 and the solubility (mole fraction) (in water, 308.15 K) was 2.53e-06. It also gave a solubility (mole fraction) (in water, 313.15 K) of 2.91e-06, a solubility (mole fraction) (in water, 318.15 K) of 3.2e-06 and a solubility (mole fraction) (in water, 323.15 K) of 3.47e-06. It also gave a solubility (mole fraction) (in water, 328.15 K) of 3.75e-06.
For COc1c(NS(=O)(=O)c2ccc(F)cc2)cc(-c2ccc3nccc(N4CCOCC4)c3c2)cc1C(N)=O, the solubility (mole fraction) (in acetone, 288.15 K) was 0.000608, the solubility (mole fraction) (in acetone, 293.15 K) was 0.000638 and the solubility (mole fraction) (in acetone, 298.15 K) was 0.000704. It also gave a solubility (mole fraction) (in acetone, 303.15 K) of 0.000817, a solubility (mole fraction) (in acetone, 308.15 K) of 0.000941 and a solubility (mole fraction) (in acetone, 313.15 K) of 0.00102. The solubility (mole fraction) (in acetone, 318.15 K) was 0.00115, the solubility (mole fraction) (in chloroform, 288.15 K) was 5.21e-05 and the solubility (mole fraction) (in chloroform, 293.15 K) was 5.44e-05. For the same molecule, the solubility (mole fraction) (in chloroform, 298.15 K) was 5.86e-05, the solubility (mole fraction) (in chloroform, 303.15 K) was 6.66e-05 and the solubility (mole fraction) (in chloroform, 308.15 K) was 7.72e-05. It also gave a solubility (mole fraction) (in chloroform, 313.15 K) of 9.58e-05, a solubility (mole fraction) (in chloroform, 318.15 K) of 0.000121 and a solubility (mole fraction) (in chloroform, 323.15 K) of 0.000149. The solubility (mole fraction) (in chloroform, 328.15 K) was 0.000188, the solubility (mole fraction) (in ethyl acetate, 288.15 K) was 9.85e-05 and the solubility (mole fraction) (in ethyl acetate, 293.15 K) was 0.000115. The solubility (mole fraction) (in ethyl acetate, 298.15 K) was 0.000127, the solubility (mole fraction) (in ethyl acetate, 303.15 K) was 0.000138 and the solubility (mole fraction) (in ethyl acetate, 308.15 K) was 0.00016. For the same molecule, the solubility (mole fraction) (in ethyl acetate, 313.15 K) was 0.000182, the solubility (mole fraction) (in ethyl acetate, 318.15 K) was 0.000187 and the solubility (mole fraction) (in ethyl acetate, 323.15 K) was 0.000183. The solubility (mole fraction) (in ethyl acetate, 328.15 K) was 0.000183, the solubility (mole fraction) (in methanol, 288.15 K) was 0.000259 and the solubility (mole fraction) (in methanol, 293.15 K) was 0.000298. It also gave a solubility (mole fraction) (in methanol, 298.15 K) of 0.000338, a solubility (mole fraction) (in methanol, 303.15 K) of 0.000398 and a solubility (mole fraction) (in methanol, 308.15 K) of 0.000473. The solubility (mole fraction) (in methanol, 313.15 K) was 0.000518, the solubility (mole fraction) (in methanol, 318.15 K) was 0.000666 and the solubility (mole fraction) (in methanol, 323.15 K) was 0.000829. It also gave a solubility (mole fraction) (in methanol, 328.15 K) of 0.000977, a solubility (mole fraction) (in toluene, 288.15 K) of 5.82e-06 and a solubility (mole fraction) (in toluene, 293.15 K) of 6.02e-06. For the same molecule, the solubility (mole fraction) (in toluene, 298.15 K) was 6.59e-06, the solubility (mole fraction) (in toluene, 303.15 K) was 7.29e-06 and the solubility (mole fraction) (in toluene, 308.15 K) was 7.86e-06. The solubility (mole fraction) (in toluene, 313.15 K) was 9.04e-06, the solubility (mole fraction) (in toluene, 318.15 K) was 1.03e-05 and the solubility (mole fraction) (in toluene, 323.15 K) was 1.23e-05. The solubility (mole fraction) (in toluene, 328.15 K) was 1.4e-05, the solubility (mole fraction) (in water, 288.15 K) was 3.54e-07 and the solubility (mole fraction) (in water, 293.15 K) was 5.68e-07. The solubility (mole fraction) (in water, 298.15 K) was 7.36e-07, the solubility (mole fraction) (in water, 303.15 K) was 8.18e-07 and the solubility (mole fraction) (in water, 308.15 K) was 9.22e-07. For the same molecule, the solubility (mole fraction) (in water, 313.15 K) was 1.08e-06, the solubility (mole fraction) (in water, 318.15 K) was 1.28e-06 and the solubility (mole fraction) (in water, 323.15 K) was 1.47e-06. For the same molecule, the solubility (mole fraction) (in water, 328.15 K) was 1.75e-06.
